Patent publication US10118935B2, “Melampomagnolide B dimers” (priority 2014, dated 2018)
Where two headings read alike, the source gives them in different places.

Legend:
M9ENL AML cell lines [1] = test: cells; details: Table 5; cell line not given
M9ENL AML cell lines [2] = details: for EC50: Table 5, cell line not given; for CC50: read-out: LC50, M9ENL AML cell lines, after 24 hours of drug exposure; for potency relative to parthenolide and MMB: M9 ENL cell lines
AML cell line AML 123009 = details: for cytotoxicity relative to PTL: AML 123009, FIG. 6; for EC50: read-out: Viability EC50, AML cell line 123009

`CN(C)CC1C(=O)O[C@H]2[C@H]1CC/C(COC(=O)NCCCCCCCCNC(=O)OC/C1=C/CC[C@@]3(C)O[C@H]3[C@H]3OC(=O)C(CN(C)C)[C@@H]3CC1)=C\CC[C@@]1(C)O[C@@H]21` (single isomer, unassigned) [JVM 3-62A] gave an EC50 (M9ENL AML cell lines [1]) of 1300 nM.
`CN(C)CC1C(=O)O[C@H]2[C@H]1CC/C(COC(=O)NCCCCCCCCNC(=O)OC/C1=C/CC[C@@]3(C)O[C@H]3[C@H]3OC(=O)C(CN(C)C)[C@@H]3CC1)=C\CC[C@@]1(C)O[C@@H]21` (single isomer, unassigned) [JVM 3-62B] gave an EC50 (M9ENL AML cell lines [2]) of 1200 nM.
Compound `C=C1C(=O)O[C@H]2[C@H]1CC/C(COC(=O)OCCC(CCOC(=O)OC/C1=C/CC[C@@]3(C)O[C@H]3[C@H]3OC(=O)C(=C)[C@@H]3CC1)O[Si](C)(C)C(C)(C)C)=C\CC[C@@]1(C)O[C@@H]21` (stereo partly drawn) [BS-3-14] has an EC50 (M9ENL AML cell lines [1]) of 1110 nM.
`C=C1C(=O)O[C@H]2[C@H]1CC/C(COC(=O)NCCC(O)CCNC(=O)OC/C1=C/CC[C@@]3(C)O[C@H]3[C@H]3OC(=O)C(=C)[C@@H]3CC1)=C\CC[C@@]1(C)O[C@@H]21` (stereo partly drawn) [BS-3-24] was tested, and the EC50 (M9ENL AML cell lines [1]) was 9030 nM.
With `C=C1C(=O)O[C@H]2[C@H]1CC/C(COC(=O)OCCC(CCOC(=O)OC/C1=C/CC[C@@]3(C)O[C@H]3[C@H]3OC(=O)C(=C)[C@@H]3CC1)OCCCCCCCCCCn1cc(CNC(=O)CCCCC3SCC4NC(=O)NC43)nn1)=C\CC[C@@]1(C)O[C@@H]21` (stereo partly drawn) [BS-4-38a] the EC50 (M9ENL AML cell lines [1]) was 20000 nM.
Work on `C=C1C(=O)O[C@H]2[C@H]1CC/C(COC(=O)OCCC(CCO)OCCCCCCCCCCn1cc(CNC(=O)CCCCC3SCC4NC(=O)NC43)nn1)=C\CC[C@@]1(C)O[C@@H]21` (stereo partly drawn) [BS-4-38b] yielded an EC50 (M9ENL AML cell lines [1]) of 30000 nM.
Work on `CN(C)CC1C(=O)O[C@H]2[C@H]1CC/C(COC(=O)OC/C1=C/CC[C@@]3(C)O[C@H]3[C@H]3OC(=O)C(CN(C)C)[C@@H]3CC1)=C\CC[C@@]1(C)O[C@@H]21` (stereo partly drawn) [JVM 3-55 B] yielded an EC50 (M9ENL AML cell lines [1]) of 5100 nM.
In the case of `C=C1C(=O)OC2C1CCC(COC(=O)NCCCNC(=O)OCC1=CCCC3(C)OC3C3OC(=O)C(=C)C3CC1)=CCCC1(C)OC21` [JVM 3-55, bis(((1aR,7aS,10aS,10bS,E)-1a-Methyl-8-methylene-9-oxo-1a,2,3,6,7,7a,8,9,10a,10b-decahydrooxireno[2′,3′:9,10]cyclodeca[1,2-b]furan-5-yl)methyl)propane-1,3-diyldicarbamate], the CC50 (M9ENL AML cell lines [2]) is reported as 560 nM.
`C=C1C(=O)OC2C1CCC(COC(=O)NCCCCCCCNC(=O)OCC1=CCCC3(C)OC3C3OC(=O)C(=C)C3CC1)=CCCC1(C)OC21` [JVM 3-58, bis(((1aR,7aS, 10aS, 10bS, E)-1a-Methyl-8-methylene-9-oxo-1a,2,3,6,7,7a,8,9,10a,10b-decahydrooxireno[2′,3′:9,10]cyclodeca[1,2-b]furan-5-yl)methyl)heptane-1,7-diyldicarbamate] gave a CC50 (M9ENL AML cell lines [2]) of 1200 nM.
Work on `C=C1C(=O)OC2C1CCC(COC(=O)NCCCCCCCCCNC(=O)OCC1=CCCC3(C)OC3C3OC(=O)C(=C)C3CC1)=CCCC1(C)OC21` [JVM 3-61, bis(((1aR,7aS, 10aS, 10bS, E)-1a-Methyl-8-methylene-9-oxo-1a,2,3,6,7,7a,8,9,10a, 1b-decahydrooxireno[2′,3′:9,10]cyclodeca[1,2-b]furan-5-yl)methyl)nonane-1,9-diyldicarbamate] yielded a CC50 (M9ENL AML cell lines [2]) of 1800 nM.
Compound `C=C1C(=O)O[C@H]2[C@H]1CC/C(COC(=O)NCCCCCCCCNCC1C(=O)O[C@H]3[C@H]1CC/C(COC(=O)NCCCCCCCCNC(=O)OC/C1=C/CC[C@@]4(C)O[C@H]4[C@H]4OC(=O)[C@@H](CNCCCCCCCCNC(=O)OC/C5=C/CC[C@@]6(C)O[C@H]6[C@H]6OC(=O)C(=C)[C@@H]6CC5)[C@@H]4CC1)=C\CC[C@@]1(C)O[C@@H]31)=C\CC[C@@]1(C)O[C@@H]21` (stereo partly drawn) [JVM 3-62-1] has an EC50 (M9ENL AML cell lines [1]) of 1700 nM.
Work on `C[C@@]12CC/C=C3\CC[C@@H]4[C@H](OC(=O)[C@H]4CNCCCCCCCCNC[C@@H]4C(=O)O[C@H]5[C@H]4CC/C(=C\CC[C@@]4(C)O[C@@H]54)COC(=O)NCCCCCCCCNC(=O)OC3)[C@@H]1O2` [JVM 3-62-2] yielded an EC50 (M9ENL AML cell lines [1]) of 38000 nM.
`C=C1C(=O)OC2C1CCC(COC(=O)NCCCCCCNC(=O)OCC1=CCCC3(C)OC3C3OC(=O)C(=C)C3CC1)=CCCC1(C)OC21` [JVM 3-64, bis(((1aR,7aS,10aS,10bS,E)-1a-Methyl-8-methylene-9-oxo-1a,2,3,6,7,7a,8,9,10a,10b-decahydrooxireno[2′,3′:9,10]cyclodeca[1,2-b]furan-5-yl)methyl)hexane-1,6-diyldicarbamate] showed a CC50 (M9ENL AML cell lines [2]) of 340 nM.
With `C=C1C(=O)O[C@H]2[C@H]1CC/C(COC(=O)NCCCCCCCCCCNC(=O)OC/C1=C/CC[C@@]3(C)O[C@H]3[C@H]3OC(=O)C(=C)[C@@H]3CC1)=C\CC[C@@]1(C)O[C@@H]21` [JVM 3-65, bis(((1aR,7aS,10aS, 10bS,E)-1a-Methyl-8-methylene-9-oxo-1a,2,3,6,7,7a,8,9,10a,10b-decahydrooxireno[2,3′:9,10]cyclodeca[1,2-b]furan-5-yl)methyl)decane-1,10-diyldicarbamate] the CC50 (M9ENL AML cell lines [2]) was 1600 nM.
In the case of `C=C1C(=O)OC2C1CCC(C(=O)NCCCCCCCCNC(=O)C1=CCCC3(C)OC3C3OC(=O)C(=C)C3CC1)=CCCC1(C)OC21` [JVM 3-78, (1aR,1a′R,4E,4′E,7aS,7a′S, 10aS, 10bS, 10a′S, 10b′S)—N,N′-(octane-1,8-diyl)bis(1a-methyl-8-methylene-9-oxo-1a,2,3,6,7,7a,8,9,10a,10b-decahydrooxireno[2′,3′:9,10]cyclodeca[1,2-b]furan-5-carboxamide)], the “potency relative to parthenolide and MMB” value (M9ENL AML cell lines [2]) is reported as “more potency than parthenolide and MMB”.
For `C=C1C(=O)OC2C1CCC(C(=O)NCCCCCCCCCNC(=O)C1=CCCC3(C)OC3C3OC(=O)C(=C)C3CC1)=CCCC1(C)OC21` [JVM 3-82, (1aR,1a′R,4E,4′E,7aS,7a′S,10aS,10bS,10a′S,10b′S)—N,N′-(nonane-1,9-diyl)bis(1a-methyl-8-methylene-9-oxo-1a,2,3,6,7,7a,8,9,10a,10b-decahydrooxireno[2 ′,3 ′9,10]cyclodeca[1,2-b]furan-5-carboxamide)], the “potency relative to parthenolide and MMB” value (M9ENL AML cell lines [2]) was “more potency than parthenolide and MMB”.
With `C=C1C(=O)O[C@H]2[C@H]1CC/C(C(=O)NCCCCCCCCCCNC(=O)/C1=C/CC[C@@]3(C)O[C@H]3[C@H]3OC(=O)C(=C)[C@@H]3CC1)=C\CC[C@@]1(C)O[C@@H]21` [JVM 3-83, (1aR,1a′R,4E,4′E,7aS,7a′S,10aS, 10bS, 10a′S, 10b′S)—N,N′-(decane-1,10-diyl)bis(1a-methyl-8-methylene-9-oxo-1a,2,3,6,7,7a,8,9,10a,10b-decahydrooxireno[2′,3′:9,10]cyclodeca[1,2-b]furan-5-carboxamide)] the “potency relative to parthenolide and MMB” value (M9ENL AML cell lines [2]) was “more potency than parthenolide and MMB”, the EC50 (M9ENL AML cell lines [2]) was 2800 nM and the “cytotoxicity relative to PTL” value (AML cell line AML 123009) was “enhanced cytotoxicity relative to PTL”. The EC50 (AML cell line AML 123009) was 2800 nM.
`C=C1C(=O)OC2C1CCC(C(=O)NCCCCCCCNC(=O)C1=CCCC3(C)OC3C3OC(=O)C(=C)C3CC1)=CCCC1(C)OC21` [JVM 3-84, (1aR,1a′R,4E,4′E,7aS,7a′S,10aS,10bS,10a′S,10b′S)—N,N′-(heptane-1,7-diyl)bis(1a-methyl-8-methylene-9-oxo-1a,2,3,6,7,7a,8,9,10a,10b-decahydrooxireno[2′,3′:9,10]cyclodeca[1,2-b]furan-5-carboxamide)] was tested, and the “potency relative to parthenolide and MMB” value (M9ENL AML cell lines [2]) was “more potency than parthenolide and MMB”.
With `C=C1C(=O)OC2C1CCC(COC(=O)OCCCCOC(=O)OCC1=CCCC3(C)OC3C3OC(=O)C(=C)C3CC1)=CCCC1(C)OC21` [JVM 3-91A, butane-1,4-diylbis(((1aR,7aS,10aS,10bS,E)-1a-methyl-8-methylene-9-oxo-1a,2,3,6,7,7a, 8,9,10a,10b-decahydrooxireno[2′,3′:9,10]cyclodeca[1,2-b]furan-5-yl)methyl)dicarbonate] the EC50 (M9ENL AML cell lines [2]) was 930 nM, the “cytotoxicity relative to PTL” value (AML cell line AML 123009) was “enhanced cytotoxicity relative to PTL” and the EC50 (AML cell line AML 123009) was 930 nM.
In the case of `C=C1C(=O)O[C@H]2[C@H]1CC/C(COC(=O)CC(=O)OC/C1=C/CC[C@@]3(C)O[C@H]3[C@H]3OC(=O)C(=C)[C@@H]3CC1)=C\CC[C@@]1(C)O[C@@H]21` [JVM 3-99, bis(((1aR,7aS,10aS,10bS,E)-1a-methyl-8-methylene-9-oxo-1a,2,3,6,7,7a,8,9,10a, 1b-decahydrooxireno[2′,3′:9,10]cyclodeca[1,2-b]furan-5-yl)methyl)malonate], the EC50 (M9ENL AML cell lines [2]) is reported as 1000 nM, the “cytotoxicity relative to PTL” value (AML cell line AML 123009) is reported as “enhanced cytotoxicity relative to PTL” and the EC50 (AML cell line AML 123009) is reported as 1000 nM.
Compound `C=C1C(=O)O[C@H]2[C@H]1CC/C(Cn1cc(-c3cccc(-c4cn(C/C5=C/CC[C@@]6(C)O[C@H]6[C@H]6OC(=O)C(=C)[C@@H]6CC5)nn4)c3)nn1)=C\CC[C@@]1(C)O[C@@H]21` [JVM 4-41A] has an EC50 (M9ENL AML cell lines [1]) of 2300 nM.
`C=C1C(=O)O[C@H]2[C@H]1CC/C(Cn1cc(CNCc3cn(C/C4=C/CC[C@@]5(C)O[C@H]5[C@H]5OC(=O)C(=C)[C@@H]5CC4)nn3)nn1)=C\CC[C@@]1(C)O[C@@H]21` [JVM 4-44] showed an EC50 (M9ENL AML cell lines [1]) of 51600 nM.
Compound `C=C1C(=O)O[C@H]2[C@H]1CC/C(Cn1cc(CCCc3cn(C/C4=C/CC[C@@]5(C)O[C@H]5[C@H]5OC(=O)C(=C)[C@@H]5CC4)nn3)nn1)=C\CC[C@@]1(C)O[C@@H]21` [JVM 4-51] has an EC50 (M9ENL AML cell lines [1]) of 4000 nM.
